Measured values as given in US20250145610A1, “CRYSTALLINE FORM OF ISAVUCONAZONIUM SULFATE AND A PROCESS FOR ITS PREPARATION” (Glenmark Life Sciences Limited, priority 2022, published 2025).
Where a name gives a salt, the structure may show the parent alone.

Assay: Stability study of crystalline vs amorphous isavuconazonium sulfate: impurity content by HPLC after storage
Assay type: physicochemical
Settings: for Impurity Compound IV content / Impurity Compound IX content / Impurity Compound VI content / Impurity Compound VII content / Impurity Compound VIII content / Impurity Compound X content: HPLC; for Storage stability (in words): 3 months at −20° C. and 2° to 8° C.
Procedure: High performance liquid chromatography (HPLC) was performed with the conditions described below for detecting chemical purity:
Column: Xterra MS C18, 150×4.6 mm, 3.5μ; Column Temperature: 45° C., Mobile phase: Mobile Phase A; 0.1% Perchloric acid in water: Mobile Phase B=Methanol
Diluent: Methanol: 0.3% Sodium bisulphate (70:30 v/v); Flow Rate: 1.0 mL/Minutes, Detection: 260 nm; Injection Volume: 20 μL.
Comparative stability data was generated for crystalline isavuconazonium sulfate (Form GL-1) and the amorphous form of isavuconazonium sulfate (prepared as described in Comparative Example 1) stored at a temperature of −20° C. and from 2° to 8° C. for three (3) months (i.e., 12 weeks). In particular, the crystalline isavuconazonium sulfate (Form GL-1) obtained as per Example 3 and the amorphous form of isavuconazonium sulfate of Comparative Example 1 were taken in an appropriate amount, and packed in a transparent polyethylene bag. The bag was sealed under vacuum and then enclosed in a black LDPE (Low-density polyethylene) bag which in turn is kept in triple laminated aluminium pouches sealed at three sides. The fourth side of the bag is then sealed under vacuum and kept in a HDPE (High-density polyethylene) container, and stored at −20° C. and from 2° to 8° C. for 3 months (i.e., 12 weeks). Both materials were analyzed after 3 months of storage by the HPLC method described above.

[1] = 3 Month at 2°-8° C., monosulfate salt
[2] = 3 Month at −20° C., monosulfate salt

Impurity Compound IV content [1]	Impurity Compound IX content [1]	Impurity Compound VI content [1]	Impurity Compound VII content [1]	Impurity Compound VIII content [1]	Impurity Compound X content [1]	Impurity Compound IV content [2]	Impurity Compound IX content [2]	Impurity Compound VI content [2]	Impurity Compound VII content [2]	Impurity Compound VIII content [2]	Impurity Compound X content [2]	Impurity Compound IV content (Initial, monosulfate salt)	Impurity Compound IX content (Initial, monosulfate salt)	Impurity Compound VI content (Initial, monosulfate salt)	Impurity Compound VII content (Initial, monosulfate salt)	Impurity Compound VIII content (Initial, monosulfate salt)	Impurity Compound X content (Initial, monosulfate salt)	Structure (SMILES)	other results
0.07%	0.13%	0.03%	0.08%	0.02%	0.07%	0.05%	0.09%	0.02%	0.08%	0.03%	0.08%	0.03%	0.09%	0.01%	0.08%	0.03%	0.05%	CNCC(=O)OCc1cccnc1N(C)C(=O)OC(C)n1cn[n+](C[C@](O)(c2cc(F)ccc2F)[C@@H](C)c2nc(-c3ccc(C#N)cc3)cs2)c1 (stereo partly drawn) [Crystalline isavuconazonium sulfate (Form GL-1) of Example 3] [(2-{[(1-{1-[(2R,3R)-3-[4-(4-cyanophenyl)-1,3-thiazol-2-yl]-2-(2,5-difluorophenyl)-2-hydroxybutyl]-1H-1,2,4-triazol-4-ium-4-yl}ethoxy)carbonyl](methyl)amino}pyridin-3-yl)methyl-N-methylglycinate monosulfate salt]	Storage stability (in words) (listed as Form GL-1, monosulfate salt): more stable compared to the amorphous form of isavuconazonium sulfate; Storage stability (in words) (listed as crystalline isavuconazonium sulfate (Form GL-1), monosulfate salt): stable at 3 months; Period over which stability is maintained (stored at −20° C. and 2° to 8° C., sealed under vacuum): ≥ 3 months
0.76%	2.5%	0.33%	0.12%	0.44%	0.04%	0.41%	1.26%	0.10%	0.12%	0.44%	0.03%	0.21%	0.51%	0.04%	0.12%	0.44%	0.03%	CNCC(=O)OCc1cccnc1N(C)C(=O)OC(C)n1cn[n+](C[C@](O)(c2cc(F)ccc2F)[C@@H](C)c2nc(-c3ccc(C#N)cc3)cs2)c1 (stereo partly drawn) [Amorphous isavuconazonium sulfate prepared as per comparativ] [(2-{[(1-{1-[(2R,3R)-3-[4-(4-cyanophenyl)-1,3-thiazol-2-yl]-2-(2,5-difluorophenyl)-2-hydroxybutyl]-1H-1,2,4-triazol-4-ium-4-yl}ethoxy)carbonyl](methyl)amino}pyridin-3-yl)methyl-N-methylglycinate monosulfate salt, reference compound]	Stability of the solid form (in words) (generates impurities of formulae IV, VI, VII, VIII, IX, X and XI): unstable
